Key:
mice = conditions: 30 to 120 minutes after loading with sucrose; cited from earlier work
[1] = test system: model mice for non-insulin-depending diabetes mellitus (KK-A^y); assay: Blood-sugar level of KK-A^y diabetic model mice fed test feed for 30 days; type: in vivo; conditions: group D, feed D (2.5% L-arabinose, no sucrose) ad libitum, FIG. 2
Protocol: Twenty model mice for non-insulin-depending diabetes mellitus showing hyperglycemia (260˜270 mg/liter) (KK-A^y, male, 8 weeks age, Nippon Clair) were preliminarily raised for one week, divided into two groups (group A and group B) and used for the test. Each of the mice was placed in a plastic cage separately and raised by keeping at 23±1° C. under a 12-hour bright-and-dark cycle (bright environment from 7 a.m. to 7 p.m. and dark environment from 7 p.m. to 7 a.m. of the next day) where feed and water were freely taken by the mice. Blood-sugar level (concentration of glucose in blood) was measured by a glucose oxidase method after collecting the blood from the venous plexus of the eyeground at 9 a.m.
The feed A mentioned in Table 1 (a feed containing α-corn starch, sucrose, and cellulose as carbohydrate sources but containing no L-arabinose) was given to the mice of group A while the feed B mentioned in Table 1 (a feed containing α-com starch, sucrose, and cellulose as carbohydrate sources and also containing L-arabinose) was given to the mice of group B and the study was carried out for 30 days. […]

sucrase = sucrase (Homo sapiens, UniProt P14410); conditions: sucrose-decomposing enzyme in the small intestine; cited from earlier work
Chain of sucrase (P14410 whole entry, species assumed): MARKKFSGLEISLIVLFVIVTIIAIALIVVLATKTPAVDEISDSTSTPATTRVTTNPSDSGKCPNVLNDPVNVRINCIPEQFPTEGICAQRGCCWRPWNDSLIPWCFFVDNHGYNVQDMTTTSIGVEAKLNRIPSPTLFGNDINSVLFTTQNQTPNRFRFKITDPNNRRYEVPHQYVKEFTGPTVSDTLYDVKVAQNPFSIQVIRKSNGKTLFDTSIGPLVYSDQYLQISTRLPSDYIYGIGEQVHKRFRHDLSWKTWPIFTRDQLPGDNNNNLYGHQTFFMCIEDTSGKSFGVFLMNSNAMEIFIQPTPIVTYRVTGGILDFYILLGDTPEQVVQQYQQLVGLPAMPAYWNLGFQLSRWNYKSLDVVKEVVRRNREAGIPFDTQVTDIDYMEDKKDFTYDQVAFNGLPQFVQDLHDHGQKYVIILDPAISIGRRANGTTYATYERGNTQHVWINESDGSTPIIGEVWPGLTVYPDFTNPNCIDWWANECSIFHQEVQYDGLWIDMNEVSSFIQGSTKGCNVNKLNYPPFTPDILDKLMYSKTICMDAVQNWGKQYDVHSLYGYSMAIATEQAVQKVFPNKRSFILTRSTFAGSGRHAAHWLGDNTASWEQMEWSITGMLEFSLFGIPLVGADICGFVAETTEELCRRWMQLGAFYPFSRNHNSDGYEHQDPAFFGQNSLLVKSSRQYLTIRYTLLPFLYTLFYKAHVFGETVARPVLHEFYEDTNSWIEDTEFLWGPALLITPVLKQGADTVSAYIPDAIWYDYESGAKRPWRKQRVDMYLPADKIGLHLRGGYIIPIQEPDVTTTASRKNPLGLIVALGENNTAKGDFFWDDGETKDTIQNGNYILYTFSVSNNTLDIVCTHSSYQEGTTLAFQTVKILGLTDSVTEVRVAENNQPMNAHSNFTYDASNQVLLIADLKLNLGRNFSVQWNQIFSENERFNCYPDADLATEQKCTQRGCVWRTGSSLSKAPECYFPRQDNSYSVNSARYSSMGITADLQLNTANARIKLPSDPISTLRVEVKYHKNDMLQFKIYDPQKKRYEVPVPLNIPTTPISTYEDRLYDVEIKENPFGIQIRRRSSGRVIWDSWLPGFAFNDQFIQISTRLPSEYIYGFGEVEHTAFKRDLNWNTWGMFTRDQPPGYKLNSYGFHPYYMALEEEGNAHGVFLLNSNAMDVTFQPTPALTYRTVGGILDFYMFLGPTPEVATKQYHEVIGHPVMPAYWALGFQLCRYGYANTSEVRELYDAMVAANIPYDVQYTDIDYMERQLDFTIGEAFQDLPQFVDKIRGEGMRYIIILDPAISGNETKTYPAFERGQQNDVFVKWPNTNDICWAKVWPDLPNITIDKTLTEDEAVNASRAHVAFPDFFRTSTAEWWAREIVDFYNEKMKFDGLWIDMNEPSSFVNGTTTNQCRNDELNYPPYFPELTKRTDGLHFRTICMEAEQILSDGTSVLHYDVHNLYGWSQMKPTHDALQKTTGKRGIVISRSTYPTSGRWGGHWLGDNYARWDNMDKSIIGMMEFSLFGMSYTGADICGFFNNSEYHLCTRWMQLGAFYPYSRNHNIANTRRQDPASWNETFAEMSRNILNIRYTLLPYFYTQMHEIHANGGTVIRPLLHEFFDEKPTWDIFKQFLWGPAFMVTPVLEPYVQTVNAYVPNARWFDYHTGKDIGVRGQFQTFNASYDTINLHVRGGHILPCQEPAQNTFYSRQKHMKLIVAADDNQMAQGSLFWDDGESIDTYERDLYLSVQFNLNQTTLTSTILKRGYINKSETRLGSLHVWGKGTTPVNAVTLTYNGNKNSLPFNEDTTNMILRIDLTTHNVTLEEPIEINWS

Structure (SMILES): O=C[C@H](O)[C@@H](O)[C@@H](O)CO [L-arabinose]
- rise of blood-sugar level after loading with sucrose (mice): suppressing the rise of blood-sugar level
- change in blood-sugar level, L-arabinose without sucrose [1]: no decrease in blood-sugar level takes place
- action on sucrase (sucrase): inhibition of sucrase

Source: patent US20040038910A1, “Remedy for diabetes mellitus” (priority 2000, published 2004)
